Source: patent US11179348B2, “Combination comprising pterostilbene for the treatment of cancer” (FUNDACIÓN UNIVERSIDAD CATÓLICA DE VALENCIA SAN VICENTE …, priority 2015, dated 2021)
Marks after values point to notes of the source that are not given here.

How the values were obtained:
[1] = system: Caco-2 colorectal carcinoma; test: In vivo growth of Caco-2 colorectal cancer xenografts; parameters: species or system human; conditions: Caco-2, day 28
A549 lung adenocarcinoma = test: In vivo growth of A549 lung cancer xenografts; parameters: species or system human; conditions: A549, day 35
[2] = system: glucocorticoid receptors (GR); test: GR content of murine B16-F1 cells by [3H]-labeled ligand whole-cell binding assay; conditions: B16-F1-RFP tumors; day 15
Procedure: Measurement of the GR Content of Cancer Cell Lines by [^3H]-Labeled Ligand Binding Assay. The GR content was measured by a whole-cell binding assay as previously described with some modifications (Harmon, J. M. & Thompson, E. B. […] Briefly 72 h-cultured melanoma cells were harvested, as indicated above, and resuspended in culture medium to a density of 5×10^6 cells/mL. […] Cells were then washed thrice in 5.0 mL of Hank's balanced salt solution and finally suspended in 1.5 mL of the same solution. […] The presence of at least 200-fold excess of unlabeled dexamethasone effectively competed out all of the binding of [^3H]-dexamethasone to specific GR. The binding of [^3H]-dexamethasone to specific GR was represented as the difference in disintegrations per minute per cell between those samples incubated with [^3H]-dexamethasone alone and those with at least 200-fold excess of unlabeled dexamethasone. Using the specific activity of [^3H]-dexamethasone, the number of receptors per cell was calculated, assuming that each receptor binds to one dexamethasone molecule.

[3] = system: HT-29 colorectal carcinoma; test: In vivo growth of HT-29 colorectal cancer xenografts; parameters: species or system human; conditions: HT-29, day 21
human A375 melanoma = conditions: 20 μM Pter, 24 h, in vitro; cited from earlier work
PC-3 cells = test: GSH levels and glutathione- and oxidative stress-related enzyme activities in PC-3 cells growing in vivo; parameters: species or system human; conditions: PC-3, in vivo Pter, day 21
Procedure: To measure enzyme activity, isolated tumor cells were homogenized in 0.1 M phosphate buffer (pH 7.2) at 4° C. GCL and GSS activities were measured as described previously (Obrador, E. et al. Hepatology 35, 74-81 (2002)). GPX (selenium dependent) activity was measured as described by Flohé and Gunzler (Flohe, L. & Gunzler, W. A. Methods Enzymol 105, 114-121 (1984)) using H2O2 as a substrate. GSR activity was determined as described by Akerboom and Sies (Akerboom, T. P. et al, Bull Eur Physiopathol Respir 17 Suppl, 221-227 (1981)). GGT activity was measured as described previously (Obrador, E. et al. Hepatology 35, 74-81 (2002)). GST activity was measured using an assay kit from Sigma. TXNRD activity, defined by the concentration of sodium-lipoate (disulfide) reduced to dehydrolipoate (dithiol) per milligram protein, was measured as previously described (Javvadi, P. et al. Cancer Res 70, 1941-1950 (2010)). SOD activity was measured as described by Flohé and Otting (Flohe, L. & Otting, F. Methods Enzymol 105, 93-104 (1984).) using 2 mM cyanide in the assay medium to distinguish mangano-type enzyme (SOD2) from the cuprozinc type (SOD1). CAT activity was analyzed as described by Aebi (Aebi, H. Methods Enzymol 105, 121-126 (1984)). NOX activity was measured by chemiluminescence following the methodology of Wind et al. (Wind, S. et al. Comparative pharmacology of chemically distinct NADPH oxidase inhibitors. Br J Pharmacol 161, 885-898 (2010)). Protein concentration was determined with the Pierce BCA protein assay (Fisher Scientific, Waltham, Mass.).
GSH, GSSG, NADP^+ and NADPH Determination.
GSH and GSSG were determined, following procedures previously described (Obrador, E. et al. PLoS One 9, e96466 (2014)), by LC/MS using the same equipment described above for pterostilbene determination. Cell processing was performed according to published methodology, where rapid N-ethylmaleimide derivatization was used to prevent GSH auto-oxidation (Asensi, M. et al. Anal Biochem 217, 323-328 (1994)). NADP^+ and NADPH were quantitated using an assay kit from Sigma (St. Louis, Mo.).
Isolation of Tumor Cells from Mouse Xenografts Using Enzymatic Digestion and a double Ficoll gradient.
To maximize the amount of isolated cells, avoiding the use of RFP-transfected cells and subsequent laser microdissection, an alternative methodology was set up. To maximize cell yield and viability the following combination of enzymes was used: collagenase III (200 U/ml; Sigma-Aldrich), DNase I (200 U/ml; Sigma-Aldrich) and trypsin (5 mg/ml; Invitrogen), and a non-enzymatic dissociation buffer (NEDB, Invitrogen). Briefly, mice were killed, and tumors were removed (avoiding skin, muscle and fat) into cold culture media and processed immediately. The tumors were minced into 1-3 mm fragments, which were then incubated with the dissociation solution (see above) for 30 min at 37° C. The tumor fragments were mixed up and down every 10 min using a […] micropipette with a tip cut to a diameter adapted to tissue fragment size. After each incubation period, the fragments were filtered through a […] nylon mesh cell strainer (BD Biosciences, San Diego, Calif., USA). The released cells were centrifuged at 1200 r.p.m. for 2 min and stored in cold CO2-independent medium with 30% FCS at […]. Fresh dissociation solution was added to the remaining tissue fragments for 30 min. Dissociation was stopped when no additional cells were released. The fragments were pushed through a sieve and all cells from all incubation periods were pooled and counted.
The dissociated cells were layered onto a double Ficoll gradient (Histopaque; Sigma-Aldrich; densities 1.077 and 1.119) and spun at 700 g for 30 min at room temperature. Cells removed from both interfaces were pooled and washed two times in CO2-independent medium and stored at 4° C. Debris and red blood cell elimination was improved with the dual-density gradient. […]

With `COc1cc(/C=C/c2ccc(O)cc2)cc(OC)c1` [Pter, trans-3,5-dimethoxy-4′-hydroxystilbene] the Tumor vol. [1] was 795 ± 285 mm^3, the Tumor vol. (A549 lung adenocarcinoma) was 223 ± 88* mm^3 and the “GR number (binding sites/cell)” value [2] was 112 ± 16 10^3 GR/cell. For the same molecule, the Tumor vol. [3] was 758 ± 214 mm^3, the “decrease in tumor cell viability” value (human A375 melanoma) was “approx. 30%” and the CAT (PC-3 cells) was 0.3 ± 0.1 mU/10^6 cells. It also gave a GCL (PC-3 cells) of 27 ± 9 mU/10^6 cells, a GSH (PC-3 cells) of 2.4 ± 1.1 nmol/10^6 cells and a GSS (PC-3 cells) of 2.7 ± 0.7 mU/10^6 cells. It also gave a GSSG (PC-3 cells) of 0.05 ± 0.02 nmol/10^6 cells, an SOD1 (PC-3 cells) of 0.05 ± 0.01 U/10^6 cells and an SOD2 (PC-3 cells) of 0.01 ± 0.005 U/10^6 cells.
